Results published in article PMC10461969 (bioRxiv, 2023).
Where two headings read alike, the source gives them in different places.

Assays:
SIRT5 [1] = target: T1, SIRT5 (Homo sapiens, UniProt Q9NXA8); test: SIRTify in live; type: cell-based; details: intact HepG2-LgBiT cells with furimazine
T1 sequence (Q9NXA8 37-310): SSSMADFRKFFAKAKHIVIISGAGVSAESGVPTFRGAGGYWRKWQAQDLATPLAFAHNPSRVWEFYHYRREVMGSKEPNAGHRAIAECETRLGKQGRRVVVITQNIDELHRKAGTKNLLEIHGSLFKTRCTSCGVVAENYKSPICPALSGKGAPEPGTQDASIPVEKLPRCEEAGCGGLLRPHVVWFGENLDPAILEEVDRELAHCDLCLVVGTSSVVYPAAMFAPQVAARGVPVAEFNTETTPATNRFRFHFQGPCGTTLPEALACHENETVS

SIRT5 [2] = target: T1, SIRT5; test: SIRTify in live; type: cell-based; details: intact KG1a-LgBiT cells with furimazine
Sirt5 [3] = target: T2, Sirt5 (Danio rerio, UniProt Q6DHI5); test: Endogenous Sirt5 desuccinylation activity in zebrafish embryos; type: in vivo, zebrafish (Danio rerio); details: embryos injected with LgBiT and peptide; endurazine
T2 sequence (Q6DHI5 33-305): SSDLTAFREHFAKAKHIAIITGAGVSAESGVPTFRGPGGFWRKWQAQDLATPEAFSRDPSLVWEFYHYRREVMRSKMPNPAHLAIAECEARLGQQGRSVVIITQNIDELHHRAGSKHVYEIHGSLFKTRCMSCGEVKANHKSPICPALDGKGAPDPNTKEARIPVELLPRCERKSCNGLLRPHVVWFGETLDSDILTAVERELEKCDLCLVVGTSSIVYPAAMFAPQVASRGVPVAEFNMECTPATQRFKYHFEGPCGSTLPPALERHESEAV

SIRT5 [4] = target: T1, SIRT5; details: read-out: IC50 Pub., Succinyl; cited from earlier work
SIRT5 [5] = target: T1, SIRT5; test: SIRTify cell-free inhibitor assay, SIRT5; details: for IC50: 250 μM NAD+

Row | Molecule | luminescence versus peptide concentration (cell permeability) (SIRT5 [1]) | luminescence versus peptide concentration (cell permeability) (SIRT5 [2]) | luminescence over 90 minutes (endogenous desuccinylation) (Sirt5 [3]) | IC50 (SIRT5 [4]) [nM] | lower IC50 for deglutarylase activity compared to desuccinylase activity (SIRT5 [5]) | IC50 (SIRT5 [5]; Glutaryl substrate (deglutarylase activity)) [nM] | IC50 (SIRT5 [5]; Succinyl substrate (desuccinylase activity)) [nM]
1 | H2N-VSGWRLF(KGlut)(KGlut)ISRRRR-OH [p86-Glutaryl8,9-R4] | much lower signal | much lower signal | – | – | – | – | –
2 | H2N-VSGWRLF(KSuc)(KSuc)ISRRRR-OH [p86-Succinyl8,9-R4] | much lower signal | much lower signal | slight increase in luminescence | – | – | – | –
3 | O=C(O)CCNC(=S)NCCCC[C@H](NS(=O)(=O)c1cccc(F)c1)C(=O)N[C@@H](Cc1c[nH]c2ccccc12)C(=O)NC1CCC1 | – | – | – | 110 | approximately 3 fold | 47 ± 2 | 102 ± 8
4 | CC[C@H](C)[C@H](NC(=O)[C@H](CCCCN)NC(=O)[C@H](CCCCN)NC(=O)[C@H](Cc1ccccc1)NC(=O)[C@H](CC(C)C)NC(=O)[C@H](CCCNC(=N)N)NC(=O)[C@H](Cc1c[nH]c2ccccc12)NC(=O)CNC(=O)[C@H](CO)NC(=O)[C@@H](N)C(C)C)C(=O)N[C@@H](CO)C(=O)N[C@@H](CCCNC(=N)N)C(=O)N[C@@H](CCCNC(=N)N)C(=O)N[C@@H](CCCNC(=N)N)C(=O)N[C@@H](CCCNC(=N)N)C(=O)O [p86-R4] | directly proportional to p86-R4 concentration | directly proportional to p86-R4 concentration | – | – | – | – | –
